{"source": "patent US12414976B2", "about": "“Pharmaceutical composition for preventing hair loss or promoting hair growth, comprising ginsenoside RG4 or mixture (Rgx 365) of ginsenosides Rg2, Rg4, Rg6, and Rh1 as active ingredient” (AREZ CO., LTD., priority 2019, dated 2025)", "key": {"[1]": {"system": "human hair follicle dermal papilla cells", "test": "WST-1 cell viability assay", "format": "cell-based", "details": "48 hours, various concentrations, vs non-treated group", "method": "With reference to the documents [Topouzi, H. et al., Exp Dermatol., 26(6), 491-496, 2017; Higgins, C. A. et al., Proc Natl Acad Sci USA., 110(49), 19679-19688, 2013; Higgins, C. A. et al., Exp Dermatol., 19(6), 546-548, 2010], human hair follicle dermal papilla (HDP) cells were incubated in a general 2D monolayer culture manner and in a 3D spheroid culture manner as in the actual human follicle structure.\nFirst, for 2D monolayer culture, human hair follicle dermal papilla cells were cultured in a mesenchymal stem cell medium (MSCM) (Innoprot, Bizakaia, Spain) supplemented with 5% fetal bovine serum (FBS, Thermo Fisher Scientific, Inc., Waltham, MA, USA) in an incubator maintaining the condition of 37° C. and 5% CO2. […]\nFirst, the human hair follicle dermal papilla cells cultured in a 2D or 3D manner in Experimental Example 1 were seeded at a density of 1×10^4 cells/well into 96-well plates (96-well round-bottom ultra-low attachment microplates) and incubated at 37° C. for 24 hours in a 5% CO2 atmosphere. […] Then, 10 μl of the WST-1 solution was added to the culture and incubated for 30 min before reading absorbance at 450 nm on an iMark microplate reader (Bio-Rad Laboratories, Hercules, CA, USA). […]"}, "VCAN": {"system": "VCAN", "test": "Real-time PCR mRNA expression, dermal papilla signature gene", "format": "cell-based, human", "details": "3D spheroid culture, vs non-treated control", "method": "(§1) Next, for 3D spheroid culture, human hair follicle dermal papilla cells were cultured in a plate (round-bottom ultra-low attachment microplate, Corning, NY, USA) containing the stem cell medium supplemented with 5% fetal bovine serum at 37° C. under a 5% CO2 atmosphere.\n(§2) Next, in order to confirm the luciferase activity results, mRNA analysis was performed on β-catenin, WNT5A, and LEF1, which are involved in the Wnt/β-catenin signaling. First, a 3D spheroid culture of human hair follicle dermal papilla cells was treated with Example 1 (20 μg/ml) for 48 hours, followed by RNA extraction with a TRIzol solution (Invitrogen, Thermo Fisher Scientific). From 2 μg of the RNA extract, cDNA was synthesized in the presence of M-MLV reverse transcriptase. The synthesized cDNA was mixed with HOT FIREPol EvaGreen qPCR Mix Plus solution (Solis BioDyne, Tartu, Estonia) and each of primer sets for the Wnt/β-catenin target genes β-catenin, WNT5A, and LEF1 and subjected to Step OnePlus Real-Time PCR (Applied Biosystems; Thermo Fisher Scientific). Relative to the expression of β-actin housekeeping gene, an expression level of each gene was derived. Analysis results of mRNA expressions are depicted in FIGS. 5B to 5D.\n(§3) After being applied to the 3D spheroid culture of human hair follicle dermal papilla cells in Experimental Example 1, the Examples of the present disclosure were examined for the effect of preventing hair loss and promoting hair growth by monitoring mRNA expression levels of ALPL, VCAN, BMP2, and FGF7.\n(§4) The mRNA expression analysis of ALPL, VCAN, BMP2, and FGF7 was carried out in the same manner as for β-catenin, WNT5A, and LEF1 in Experimental Example 3-2, with the exception of using primer sets for ALPL, VCAN, FGF7, and BMP2 instead of those for β-catenin, WNT5A, and LEF1. The mRNA expression analysis data are depicted in FIGS. 6 and 7."}, "ALPL": {"system": "ALPL", "test": "Real-time PCR mRNA expression, dermal papilla signature gene", "format": "cell-based, human", "details": "3D spheroid culture, vs non-treated control", "method": "as §1, §2, §3, §4"}, "BMP2": {"system": "BMP2", "test": "Real-time PCR mRNA expression, dermal papilla signature gene", "format": "cell-based, human", "details": "3D spheroid culture, vs non-treated control", "method": "as §1, §2, §3, §4"}, "FGF7": {"system": "FGF7", "test": "Real-time PCR mRNA expression, dermal papilla signature gene", "format": "cell-based, human", "details": "3D spheroid culture, vs non-treated control", "method": "as §1, §2, §3, §4"}, "β-catenin": {"system": "β-catenin", "test": "Real-time PCR mRNA expression, Wnt/β-catenin signaling", "format": "cell-based, human", "details": "3D spheroid culture, 20 μg/ml, 48 hours, relative to β-actin, vs non-treated group (control)", "method": "as §1, §2"}, "WNT5A": {"system": "WNT5A", "test": "Real-time PCR mRNA expression, Wnt/β-catenin signaling", "format": "cell-based, human", "details": "3D spheroid culture, 20 μg/ml, 48 hours, relative to β-actin, vs non-treated group (control)", "method": "as §1, §2"}, "LEF1": {"system": "LEF1", "test": "Real-time PCR mRNA expression, Wnt/β-catenin signaling", "format": "cell-based, human", "details": "3D spheroid culture, 20 μg/ml, 48 hours, relative to β-actin, vs non-treated group (control)", "method": "as §1, §2"}, "[2]": {"system": "human hair follicle dermal papilla cells", "test": "Formation and size of 3D spheroids (phase-contrast microscope)", "format": "cell-based", "details": "3D culture, 48 hours", "method": "as §1\nReferring to the document [Higgins, C. A. et al., Exp Dermatol., 19(6), 546-548, 2010; Higgins, C. A. et al., Proc Natl Acad Sci USA., 110(49), 19679-19688, 2013; Kang, B. M. et al., J Invest Dermatol., 132(1), 237-239, 2012], a 3D spheroid culture of human hair follicle dermal papilla cells is reported to induce better formation and growth of hair follicles, compared to a 2D culture of human hair follicle dermal papilla cells. In addition, the document [Whiting, D. A., J Am Acad Dermatol., 45(3 Suppl), S81-S86, 2001; de Lacharriere, O. et al., Arch Dermatol., 137(5), 641-646, 2001; Jahoda, C. A., Exp Dermatol., 7(5), 235-248, 1998] reports that a decrease in the size of dermal papilla may cause follicle miniaturization in patients with hair loss. The Examples of the present disclosure were examined for effects of preventing hair loss and promoting hair growth by monitoring the formation and size of 3D spheroids after application to the 3D spheroid culture of Experimental Example 1.\nFirst, the formation and size change of 3D spheroids of human hair follicle dermal papilla cells were observed. In this regard, the 3D spheroid culture of cells in Experimental Example 1 was seeded at a density of 5×10^4 cells/well into 96-well plates (96-well round-bottom ultra-low attachment microplates) and incubated for 48 hours with predetermined concentrations of Examples 1 and 2 and Comparative Example 1 (ginsenoside Rg2). Thereafter, the human dermal papilla cells were observed under a phase-contrast microscope to see whether the cells formed 3D spheroids and to measure sizes of the spheroids."}, "TCF/LEF": {"system": "TCF/LEF", "test": "TCF/LEF luciferase reporter assay (TOPFlash/FOPFlash), Wnt/β-catenin signaling", "format": "cell-based", "details": "HEK293 cells, 20 μg/ml, 24 hours, vs non-treated group (control)", "method": "HEK293 cells were cultured in DMEM (Dulbecco's Modified Eagle's Medium, Thermo Fisher Scientific, Inc.) supplemented with 10% fetal bovine serum, penicillin (50 U/ml), and streptomycin (50 U/ml) under the condition of 37° C. and 5% CO2.\nWhether the Wnt/β-catenin signaling is activated or not was determined using a TCF/LEF luciferase reporter plasmid (TOPFlash, Merck-Millipore, Darmstadt, Germany) designed to specifically react with the transcription factor TCF/LEF activated by β-catenin, and a reporter plasmid having a mutation caused in the promoter thereof (FOPFlash, Merck-Millipore, Darmstadt, Germany).\nFirst, the TCF/LEF luciferase reporter plasmid (TOPFlash (TCF/LEF-wt) or FOPFlash (TCF/LEF-mut)) and a β-galactosidase plasmid were transfected into the HEK293 cells cultured in Experimental Example 1 with the aid of Lipofectamine 3000 (Invitrogen, Thermo Fisher Scientific, Inc.). After being incubated with 20 μg/ml of Example 1 for 24 hours, the transfected cells were lysed with a passive lysis buffer (Promega, Madison, WI, USA). The cell lysate thus formed was added with D-luciferin and measured for luciferase activity by Glomax 96 Microplate Luminometer (Turner Biosystem, Sunnyvale, CA, USA). β-Galactosidase activity was measured with the aid of Luminescent β-galactosidase Detection Kit II (Clontech Laboratories Inc., USA). […]"}}, "data": [{"smiles": "CC(C)=CC/C=C(/C)[C@H]1CC[C@]2(C)[C@@H]1[C@H](O)C[C@@H]1[C@@]3(C)CC[C@H](O)C(C)(C)[C@@H]3[C@@H](O[C@@H]3O[C@H](CO)[C@@H](O)[C@H](O)[C@H]3O[C@@H]3O[C@@H](C)[C@H](O)[C@@H](O)[C@H]3O)C[C@]12C", "note": "[Example 1, ginsenoside Rg4]", "values": [{"measurement": "cell viability", "setting": "[1]; 2D (monolayer) cultured cells", "value": "the same cell viability"}, {"measurement": "cell viability", "setting": "[1]; 3D (spheroid) cultured cells", "value": "the same cell viability"}, {"measurement": "mRNA expression level of VCAN", "setting": "VCAN", "value": "increased"}, {"measurement": "mRNA expression level of ALPL", "setting": "ALPL", "value": "increased"}, {"measurement": "mRNA expression level of BMP2", "setting": "BMP2", "value": "increased"}, {"measurement": "mRNA expression level of FGF7", "setting": "FGF7", "value": "increased"}, {"measurement": "mRNA expression level of β-catenin", "setting": "β-catenin", "value": "two folds or more"}, {"measurement": "mRNA expression level of WNT5A", "setting": "WNT5A", "value": "two folds or more"}, {"measurement": "mRNA expression level of LEF1", "setting": "LEF1", "value": "two folds or more"}, {"measurement": "number of 3D spheroids, increase compared to ginsenoside Rg2 of Comparative Example 1", "setting": "[2]; FIG. 3C", "value": "two to three folds"}, {"measurement": "size of 3D spheroids, increase compared to ginsenoside Rg2 of Comparative Example 1", "setting": "[2]; FIG. 3C", "value": "two to three folds"}, {"measurement": "number of 3D spheroids", "setting": "[2]; vs non-treated group", "value": "increase the number and size of 3D spheroids in a concentration-dependent manner"}, {"measurement": "size of 3D spheroids", "setting": "[2]; vs non-treated group", "value": "increase the number and size of 3D spheroids in a concentration-dependent manner"}, {"measurement": "activation of TCF/LEF (luciferase activity)", "setting": "TCF/LEF", "value": "two folds or more"}]}]}
